# US10315996B2, “ROR gamma (RORγ) modulators” (LEAD PHARMA HOLDING B.V., priority 2015, dated 2019)
# Target: T1, RORγ (Homo sapiens, UniProt P51449)
# T1 construct: expressed in transfected cells; host or cells: 293FT cells (Invitrogen), expression vector pFN26A (Promega)
# T1 sequence (P51449 269-508 limits assumed): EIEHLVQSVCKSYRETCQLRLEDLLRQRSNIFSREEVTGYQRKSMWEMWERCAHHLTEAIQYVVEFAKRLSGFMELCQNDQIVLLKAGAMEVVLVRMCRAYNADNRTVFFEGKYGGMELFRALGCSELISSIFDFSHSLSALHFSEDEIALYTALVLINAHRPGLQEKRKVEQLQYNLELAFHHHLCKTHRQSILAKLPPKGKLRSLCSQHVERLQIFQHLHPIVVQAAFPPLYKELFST
# Experiment: RORγ GAL4 reporter gene assay
# Format: cell-based
# Details: inhibition of RORγ activity, GAL4-RORγ-LBD luciferase reporter in 293FT cells, overnight incubation; read-out: mean pIC50 (converted)
# Description: Example inhibitors 1-166 were tested for their ability to inhibit RORγ activity in a RORγ GAL4 reporter gene assay. The assay procedure and results are described below.
# RORγ GAL4 Reporter Gene Assay Description
# A GAL4 one-hybrid reporter system employing luciferase readout was established to determine inhibition of RORγ in 293FT cells. The RORγ ligand-binding domain (LBD) was fused to the yeast GAL4 DNA binding domain (DBD) and placed under the control of the human cytomegalovirus (CMV) immediate early promoter, using expression vector pFN26A (Promega) and standard recombinant DNA cloning methods. To serve as a control in the assay, a similar vector was generated in which the GAL4-DBD was fused to Herpes simplex virus protein 16 (VP16), a constitutive transcriptional activator.
# To monitor the inhibitory effect of compounds on RORγ, a transcriptional reporter construct was used. The pGL4.35 vector (Promega) contains nine copies of the GAL4 Upstream Activator Sequence (UAS). This sequence drives the transcription of the luciferase reporter gene luc2P in response to binding of a fusion protein containing the GAL4 DNA binding domain, as for example expressed by the GAL4-RORγ-LBD and GAL4-VP16 expression vectors described above. To allow a GAL4 fusion protein to drive the expression of the luciferase reporter, the pGL4.35 expression vector and the appropriate GAL4 fusion protein expression vector were bulk transfected in the 293FT cells using standard transfection techniques.
# The day after transfection, cells were plated into 96 well plates, test compound was added and the plates were incubated overnight. Subsequently, the firefly luciferase activity was quantified using luciferase detection reagent and luminescence readout.
# Detailed Assay Description
# 293FT cells (Invitrogen) were transfected with a GAL4 fusion protein expression vector (as described above) and the transcriptional reporter construct (pGL4.35, Promega). 60 μL of TransIT-293 transfection reagent (Mirus Bio) was added drop wise to 1500 μl Opti-MEM I Reduced Serum Medium (Invitrogen) and incubated at room temperature (RT) for 5 to 20 minutes. 1500 μL of this reagent mixture was added to 5 μg of GAL4 fusion protein expression vector and 5 μg of the transcriptional reporter construct, and incubated at RT for 20 minutes.
# To harvest 293FT cells from a T75 flask, first the culture medium was taken off the cells. Subsequently, the cells were washed with Phosphate Buffered Saline (PBS) (Lonza), after which the PBS was removed. To dissociate the cells, 1 ml of TrypLE Express (Invitrogen) was added to the flask, followed by incubation at RT until the cells visually started to detach. Cells were collected in 5 mL of assay medium (DMEM culture medium (Lonza), 10% dialyzed FBS (Invitrogen) and Pen/Strep (Lonza)) to achieve a single cell suspension. 10×10^6 cells were spun down and re-suspended in 10 mL of assay medium. Subsequently, the cell suspension was added to the transfection mix tube, and then transferred as a whole to a T75 flask (Greiner), followed by overnight (16-24 hours) incubation at 37° C. and 5% CO2.
# For compound screening, the cells were harvested (as described above) and counted. 13×10^6 cells were spun down, the supernatant was aspirated and the cells were re-suspended in 17.3 mL of assay medium obtaining a cell suspension of 0.75×10^6 cells/mL. 80 μL of cell suspension (60,000 cells) was plated per well into a white, flat bottom, tissue culture treated, 96 well screening plates (Greiner).
# Test compounds were diluted, starting from a 10 mM dimethylsulfoxide (DMSO) stock solution, to serial dilutions in DMSO at 500× the final test concentration. Subsequently, these solutions were diluted to 5× the final test concentration in two 10-fold-dilution steps in assay medium. The final DMSO concentration of the 5× test compound solution was 1%. […]
row,IC50 [nM],SMILES
1,≤ 10,"CCN(C(=O)c1ccc(NC(=O)Cc2ccc(S(=O)(=O)CC3CC3)cc2)c(F)c1)c1ccccc1 [Example 102, 4-[2-(4-cyclopropylmethanesulfonylphenyl)acetamido]-N-ethyl-3-fluoro-N-phenylbenzamide]"
2,≤ 1000,"CCN(C(=O)c1ccc(NC(=O)Cc2ccc(S(=O)(=O)NC3CC3)cc2)cc1)c1nnc(C)s1 [Example 97, 4-{2-[4-(cyclopropylsulfamoyl)phenyl]acetamido}-N-ethyl-N-(5-methyl-1,3,4-thiadiazol-2-yl)benzamide]"
3,≤ 100,"Cc1ccccc1N(C)C(=O)c1ccc(NC(=O)Cc2ccc(S(=O)(=O)CC3CC3)cc2)cc1F [Example 116, 4-[2-(4-cyclopropylmethanesulfonylphenyl)acetamido]-2-fluoro-N-methyl-N-(2-methylphenyl)benzamide]"
4,≤ 10,"CCN(C(=O)c1ccc(NC(=O)Cc2ccc(S(=O)(=O)CC3CC3)cc2)cc1F)c1cccc(C)c1C [Example 119, 4-[2-(4-cyclopropylmethanesulfonylphenyl)acetamido]-N-(2,3-dimethylphenyl)-N-ethyl-2-fluorobenzamide]"
5,≤ 100,"CCN(C(=O)c1ccc(NC(=O)Cc2ccc(S(=O)(=O)NC3CC3)cc2)cc1)c1nc(C)c(C)s1 [Example 107, 4-{2-[4-(cyclopropylsulfamoyl)phenyl]acetamido}-N-(4-methyl-5-methyl-1,3-thiazol-2-yl)-N-ethyl-benzamide]"
6,≤ 1000,"CC(C)(NC(=O)c1ccc(NC(=O)Cc2ccc(S(=O)(=O)CC3CC3)cc2)cc1)c1cccnc1 [Example 68, 4-[2-(4-cyclopropylmethanesulfonylphenyl)acetamido]-N-[2-(pyridin-3-yl)propan-2-yl]benzamide]"
7,≤ 10,"CCOC(=O)CN(Cc1ccccc1)C(=O)c1ccc(NC(=O)Cc2ccc(S(=O)(=O)CC3CC3)cc2)cc1 [Example 32, ethyl 2-(N-benzyl-1-{4-[2-(4-cyclopropylmethanesulfonylphenyl)acetamido]phenyl}formamido)acetate]"
8,≤ 1000,"CCOC(=O)C1CCCN(C(=O)c2ccc(NC(=O)Cc3ccc(S(=O)(=O)CC4CC4)cc3)cc2)C1 (centres unmarked) [Example 25, ethyl 1-{4-[2-(4-cyclopropylmethanesulfonylphenyl)acetamido]benzoyl}piperidine-3-carboxylate]"
9,≤ 10,"CC(C)(C)N(C(=O)c1ccc(NC(=O)Cc2ccc(S(=O)(=O)CC3CC3)cc2)c(F)c1)c1ccccc1 [Example 134, N-tert-butyl-4-[2-(4-cyclopropylmethanesulfonylphenyl)acetamido]-3-fluoro-N-phenylbenzamide]"
10,≤ 10,"CCCN(C(=O)c1ccc(NC(=O)Cc2ccc(S(=O)(=O)CC3CC3)cc2)cc1)c1cccnc1 [Example 20, 4-[2-(4-cyclopropylmethanesulfonylphenyl)acetamido]-N-propyl-N-(pyridin-3-yl)benzamide]"
11,≤ 1000,"CCN(C(=O)c1ccc(NC(=O)Cc2ccc(S(=O)(=O)CC3CC3)cc2)c(OC)c1)c1ccccc1 [Example 101, 4-[2-(4-cyclopropylmethanesulfonylphenyl)acetamido]-N-ethyl-3-methoxy-N-phenylbenzamide]"
12,≤ 100,"CN(C(=O)c1ccc(NC(=O)Cc2ccc(S(=O)(=O)NC3CC3)cc2)cc1)c1ccccc1 [Example 44, 4-{2-[4-(cyclopropylsulfamoyl)phenyl]acetamido}-N-methyl-N-phenylbenzamide]"
13,≤ 100,"CN(CCc1ccccc1)C(=O)c1ccc(NC(=O)Cc2ccc(S(=O)(=O)CC3CC3)cc2)cc1 [Example 10, 4-[2-(4-cyclopropylmethanesulfonylphenyl)acetamido]-N-methyl-N-(2-phenylethyl)benzamide]"
14,≤ 1000,"Cc1cc(N(C)C(=O)c2ccc(NC(=O)Cc3ccc(S(=O)(=O)NC4CC4)cc3)cc2)no1 [Example 91, 4-{2-[4-(cyclopropylsulfamoyl)phenyl]acetamido}-N-methyl-N-(5-methyl-1,2-oxazol-3-yl)benzamide]"
15,≤ 100,"O=C(Cc1ccc(S(=O)(=O)CC2CC2)cc1)Nc1ccc(C(=O)Nc2ccccc2OC(F)(F)F)cc1 [Example 74, 4-[2-(4-cyclopropylmethanesulfonylphenyl)acetamido]-N-[2-(trifluoromethoxy)phenyl]benzamide]"
16,≤ 10,"O=C(Cc1ccc(S(=O)(=O)CC2CC2)cc1)Nc1ccc(C(=O)N(c2ccccc2)C2CC(F)(F)C2)cc1 [Example 144, 4-[2-(4-cyclopropylmethanesulfonylphenyl)acetamido]-N-(3,3-difluorocyclobutyl)-N-phenylbenzamide]"
17,≤ 1000,"CCOC(=O)c1cc2c(s1)CN(C(=O)c1ccc(NC(=O)Cc3ccc(S(=O)(=O)CC4CC4)cc3)cc1)CC2 [Example 33, ethyl 6-{4-[2-(4-cyclopropylmethanesulfonylphenyl)acetamido]benzoyl}-4H,5H,6H,7H-thieno[2,3-c]pyridine-2-carboxylate]"
18,≤ 10,"CN(C(=O)c1ccc(NC(=O)Cc2ccc(S(=O)(=O)CC3CC3)cc2)cc1F)c1ccccc1F [Example 126, 4-[2-(4-cyclopropylmethanesulfonylphenyl)acetamido]-2-fluoro-N-(2-fluorophenyl)-N-methylbenzamide]"
19,≤ 100,"CCN(C(=O)c1ccc(NC(=O)Cc2ccc(S(=O)(=O)CC3CC3)cc2)cc1Cl)c1ccccc1 [Example 100, 2-chloro-4-[2-(4-cyclopropylmethanesulfonylphenyl)acetamido]-N-ethyl-N-phenylbenzamide]"
20,≤ 1000,"CCCN(C)C(=O)c1ccc(NC(=O)Cc2ccc(S(=O)(=O)CC3CC3)cc2)cc1 [Example 7, 4-[2-(4-cyclopropylmethanesulfonylphenyl)acetamido]-N-methyl-N-propylbenzamide]"
21,≤ 1000,"CCNC(=O)c1ccc(NC(=O)Cc2ccc(S(=O)(=O)CC3CC3)cc2)cc1 [Example 2, 4-[2-(4-cyclopropylmethanesulfonylphenyl)acetamido]-N-ethylbenzamide]"
22,≤ 100,"CN(Cc1ccccc1)C(=O)c1ccc(NC(=O)Cc2ccc(S(=O)(=O)CC3CC3)cc2)cc1 [Example 5, N-benzyl-4-[2-(4-cyclopropylmethanesulfonylphenyl)acetamido]-N-methylbenzamide]"
23,≤ 1000,"CN(C(=O)c1ccc(NC(=O)Cc2ccc(S(=O)(=O)CC3CC3)cc2)cc1)c1nccs1 [Example 85, 4-[2-(4-cyclopropylmethanesulfonylphenyl)acetamido]-N-methyl-N-(1,3-thiazol-2-yl)benzamide]"
24,≤ 1000,"CCN(C(=O)c1ccc(NC(=O)Cc2ccc(S(=O)(=O)NC3CC3)cc2)cc1)c1c(C)noc1C [Example 110, 4-{2-[4-(cyclopropylsulfamoyl)phenyl]acetamido}-N-(dimethyl-1,2-oxazol-4-yl)-N-ethylbenzamide]"
25,≤ 100,"O=C(Cc1ccc(S(=O)(=O)CC2CC2)cc1)Nc1ccc(C(=O)N(C2CCC2)C2CCC2)cc1 [Example 27, N,N-dicyclobutyl-4-[2-(4-cyclopropylmethanesulfonylphenyl)acetamido]benzamide]"
26,≤ 10,"CC(N(C(=O)c1ccc(NC(=O)Cc2ccc(S(=O)(=O)CC3CC3)cc2)cc1)c1ccccc1)C(F)(F)F (centres unmarked) [Example 146, 4-[2-(4-cyclopropylmethanesulfonylphenyl)acetamido]-N-phenyl-N-(1,1,1-trifluoropropan-2-yl)benzamide]"
